How the values were obtained:
Assay in all cases: relative viability (nuclei count vs DMSO), 5 days (fraction); higher = more cells survive
EMC-BAC-2 = system: EMC-BAC-2
Outline: (§1)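 Lung cancer cell lines, seeded in 1536-well plates, were treated the following day by pin tool with a single drug or with five library-drug doses (not always all listed) in √10 steps on top of a fixed anchor-drug dose. Cells were fixed and nuclei stained in one step after 5 days, and nuclei were counted. Relative viability is the nuclei count for treated wells divided by that for vehicle wells, reported as medians of duplicate plates.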

NCI-H1915 = system: NCI-H1915
Outline: as §1

UMC-11 = system: UMC-11
Outline: as §1

NCI-H3122 = system: NCI-H3122
Outline: as §1

NCI-H1755 = system: NCI-H1755
Outline: as §1

NCI-H441 = system: NCI-H441
Outline: as §1

NCI-H2126 = system: NCI-H2126
Outline: as §1

HCC-78 = system: HCC-78
Outline: as §1

LXF-289 = system: LXF-289
Outline: as §1

NCI-H358 = system: NCI-H358
Outline: as §1

NCI-H1993 = system: NCI-H1993
Outline: as §1

EPLC-272H = system: EPLC-272H
Outline: as §1

C=C1C(=O)O[C@@H](CCCCCCCC)[C@@H]1C(=O)O [C-75] + COc1cc2c(Oc3ccc(NC(=O)C4(C(=O)Nc5ccc(F)cc5)CC4)cc3F)ccnc2cc1OCCCN1CCOCC1 [Foretinib] (partner 0.25 µM)
relative viability (EMC-BAC-2; first compound 0.8 µM): 0.99 | relative viability (EMC-BAC-2; first compound 2.53 µM): 0.904 | relative viability (EMC-BAC-2; first compound 8 µM): 1.05 | relative viability (NCI-H1915; first compound 0.08 µM): 1.04 | relative viability (NCI-H1915; first compound 0.253 µM): 1.1 | relative viability (NCI-H1915; first compound 0.8 µM): 1.03 | relative viability (NCI-H1915; first compound 2.53 µM): 1.07 | relative viability (NCI-H1915; first compound 8 µM): 1.05 | relative viability (UMC-11; first compound 0.08 µM): 0.99 | relative viability (UMC-11; first compound 0.253 µM): 1.04 | relative viability (UMC-11; first compound 0.8 µM): 0.978 | relative viability (UMC-11; first compound 2.53 µM): 0.681 | relative viability (UMC-11; first compound 8 µM): 0.69 | relative viability (NCI-H3122; first compound 0.08 µM): 0.966 | relative viability (NCI-H3122; first compound 0.253 µM): 0.848 | relative viability (NCI-H3122; first compound 0.8 µM): 0.936 | relative viability (NCI-H3122; first compound 2.53 µM): 0.952 | relative viability (NCI-H3122; first compound 8 µM): 0.983 | relative viability (NCI-H1755; first compound 0.08 µM): 0.922 | relative viability (NCI-H1755; first compound 0.253 µM): 0.886 | relative viability (NCI-H1755; first compound 0.8 µM): 0.94 | relative viability (NCI-H1755; first compound 2.53 µM): 0.888 | relative viability (NCI-H1755; first compound 8 µM): 0.878 | relative viability (NCI-H441; first compound 0.08 µM): 1.01 | relative viability (NCI-H441; first compound 0.253 µM): 0.958 | relative viability (NCI-H441; first compound 0.8 µM): 1.03 | relative viability (NCI-H441; first compound 2.53 µM): 0.789 | relative viability (NCI-H441; first compound 8 µM): 1.15 | relative viability (NCI-H2126; first compound 0.08 µM): 1.1 | relative viability (NCI-H2126; first compound 0.253 µM): 1.27 | relative viability (NCI-H2126; first compound 0.8 µM): 1.2 | relative viability (NCI-H2126; first compound 2.53 µM): 1.08 | relative viability (NCI-H2126; first compound 8 µM): 1.07 | relative viability (HCC-78; first compound 0.08 µM): 0.553 | relative viability (HCC-78; first compound 0.253 µM): 0.554 | relative viability (HCC-78; first compound 0.8 µM): 0.577 | relative viability (HCC-78; first compound 2.53 µM): 0.421 | relative viability (HCC-78; first compound 8 µM): 0.687 | relative viability (LXF-289; first compound 0.08 µM): 0.949 | relative viability (LXF-289; first compound 0.253 µM): 0.965 | relative viability (LXF-289; first compound 0.8 µM): 0.932 | relative viability (LXF-289; first compound 2.53 µM): 0.654 | relative viability (LXF-289; first compound 8 µM): 0.948 | relative viability (NCI-H358; first compound 0.08 µM): 0.748 | relative viability (NCI-H358; first compound 0.253 µM): 0.623 | relative viability (NCI-H358; first compound 0.8 µM): 0.565 | relative viability (NCI-H358; first compound 2.53 µM): 0.595 | relative viability (NCI-H358; first compound 8 µM): 0.511 | relative viability (NCI-H1993; first compound 0.08 µM): 0.898 | relative viability (NCI-H1993; first compound 0.253 µM): 0.782 | relative viability (NCI-H1993; first compound 0.8 µM): 0.851 | relative viability (NCI-H1993; first compound 2.53 µM): 0.786 | relative viability (NCI-H1993; first compound 8 µM): 0.88 | relative viability (EPLC-272H; first compound 0.08 µM): 0.686 | relative viability (EPLC-272H; first compound 0.253 µM): 0.936 | relative viability (EPLC-272H; first compound 0.8 µM): 0.554 | relative viability (EPLC-272H; first compound 2.53 µM): 0.429 | relative viability (EPLC-272H; first compound 8 µM): 0.386
